Assay results as given in patent US20120190656A1, “METHODS FOR SELECTING […] TO IMPROVE HDL CHOLESTEROL AND TR[…]” (priority 2010, published 2012).

Key:
[1] = test system: HDL levels; assay: Population studies (Aging, FHS, collective sample), maximum likelihood models of HDL versus vitamin D intake and genotype; assay type: in vivo, human; conditions: for increase of HDL: vitamin D deficient subjects, retrospective studies
Procedure: (§1) Study populations. Factors associated with cardiovascular disease were analyzed using samples from an Aging study population from Utah (“Aging” or “Utah” sample), which included approximately 2500 subjects in 98 Utah pedigrees with 2 or more probands such as, e.g., early stroke, coronary heart disease death, or hypertension. Details regarding subject selection have been previously published. See Williams et al., Recruitment of members of high-risk Utah pedigrees. Control Clin Trials 8: 105S-114S (1987); see also Table 2 below. Additional follow-up assessments were performed, where a validated dietary survey was administered, lipid profiles were determined, DNA was obtained, and standard cardiovascular risk factors were measured. See Hunt et al., Predictors of an increased risk of future hypertension in Utah. A screening analysis. Hypertension 17: 969-976 (1991). In some of the following examples results are described for subjects selected from the foregoing population, wherein samples were excluded if they lacked data relating to complete lipid profiles, genetic polymorphism data, or dietary survey data (n=1060 subjects in 96 families for HDL analysis, and n=1057 subjects in 70 families for triglyceride analysis).
(§2) A replication cohort, moreover, consisted of 5243 caucasian subjects from the NHLBI Family Heart Study (“FamHS” or “FHS” sample), which were not previously administered cholesterol modifying medications. Data for these subjects included lipid profiles and genetic analyses, as described. See Heard-Costa et al., NRXN3 is a novel locus for waist circumference: a genome-wide association study from the CHARGE Consortium. PLoS Genet 5: e1000539 (2009). These population-based families were gathered as part of four studies: the Framingham Heart Study, the Utah Family Tree Study, and ARIC centers in Minneapolis and Forsyth County, N.C. (n=2890 individuals in 504 families; see Table 2 for sample characteristics).
(§3) Both the Aging and FamHS samples were subdivided by season (see Table 2) when measuring both diet and lipids levels. Winter subsamples included data analyzed from November to March and consisted of 362 Aging subjects and 1006 FamHS subjects as shown below in Table 2. Because HDL and triglyceride levels are inversely correlated, vitamin D-triglyceride interactions were also measured from the foregoing samples, as further described below.
(§4) Dietary questionnaire and winter subsamples. Vitamin D intake was measured both in the Aging and FHS samples via a staff-administered semi-quantitative food frequency questionnaire with reproducibility and validity. See, e.g., Willett et al., Reproducibility and validity of a semiquantitative food frequency questionnaire. Am J Epidemiol 122: 51-65 (1985). […] See Jacques et al., Comparison of micronutrient intake measured by a dietary questionnaire and biochemical indicators of micronutrient status. Am J Clin Nutr 57: 182-189 (1993).
(§5) Accordingly, the Aging and FHS studies were subdivided into seasonal and lipid measurement cohorts, both of which occurred at the same clinic visit for the subject.
(§6) Study design and analysis for the aging and FHS samples. jPAP software (see Hasstedt et al., jPAP: Document-driven software for genetic analysis. Genet Epidemiol 29 (2005)), was employed for maximum likelihood analysis, correction of potential covariates, and to estimate heritability attributable to gene-environment interaction factors (interaction) measured as changes in estimated polygenic variance. Natural log transformed HDL was employed as the dependent variable, and all maximum likelihood models included age, sex, and log transformed BMI as baseline covariates. […] Analyses were performed separately for the entire Aging sample and the Aging winter subsample. The results were confirmed using the FHS sample population. […]

[2] = test system: triglyceride levels; assay: Population studies (collective sample), maximum likelihood models of triglycerides versus vitamin D intake and genotype; assay type: in vivo, human
Procedure: as §1, §2, §3, §4, §5, §6

[3] = wintertime vitamin D intake raised from 50 IU to 550 IU, heterozygous G/C at rs3135506, model estimate
[4] = wintertime vitamin D intake raised from 50 IU to 550 IU, homozygous C/C at rs3135506, model estimate

SMILES: C=C1/C(=C\C=C2/CCC[C@]3(C)[C@@H]([C@H](C)CCCC(C)(C)O)CC[C@@H]23)C[C@@H](O)C[C@@H]1O [vitamin D, 1,25-dihydroxyvitamin D3]
- association of vitamin D alone with HDL levels ([1]; FHS study population, entire sample): not associated with an increase in patient HDL levels
- increase of HDL ([1]; heterozygous for a vitamin D sensitive allele): 5%
- increase of HDL ([1]; homozygous for a vitamin D sensitive allele): 10%
- increase of HDL cholesterol [1, 3]: approximately 10 mg/dL
- increase of HDL cholesterol [1, 4]: approximately 20 mg/dL
- decrease of HDL cholesterol ([1]; wintertime vitamin D intake raised from 50 IU to 550 IU, homozygous G/G at rs3135506, model estimate): approximately 0.5 mg/dL
- effect of vitamin D on triglyceride levels ([2]; collective sample, entire, patients with rs3135506 polymorphism, p=0.33): did not have a significant effect
- decrease of triglyceride levels ([2]; vitamin D deficient subjects, heterozygous for a vitamin D sensitive allele, retrospective studies): 5%
- decrease of triglyceride levels ([2]; vitamin D deficient subjects, homozygous for a vitamin D sensitive allele, retrospective studies): 10%
- decrease of triglyceride levels [2, 3]: 50 mg/dL
- decrease of triglyceride levels [2, 4]: 125 mg/dL
- increase of triglycerides ([2]; wintertime vitamin D intake raised from 50 IU to 550 IU, homozygous G/G at rs3135506 (wild-type), model estimate): 2 mg/dL
